Experimental data taken from patent US11241507B2, “Near-infrared chemiluminescent probes for in-vivo imaging” (RAMOT AT TEL-AVIV UNIVERSITY LTD., priority 2017, dated 2022).

Key:
[1] = Chemiluminescence properties of NIR luminophores under physiological conditions; type: physicochemical; settings: for ΦCL (chemiluminescence efficiency) / λ maxCL (maximal chemiluminescence emission): physiological conditions
Procedure: All reactions requiring anhydrous conditions were performed under an argon atmosphere. All reactions were carried out at room temperature unless stated otherwise. Chemicals and solvents were either A.R. grade or purified by standard techniques. TLC: silica gel plates Merck 60 F254: compounds were visualized by irradiation with UV light. Column chromatography (FC): silica gel Merck 60 (particle size 0.040-0.063 mm), eluent given in parentheses. RP-HPLC: C18 5u, 250×4.6 mm, eluent given in parentheses. Preparative RP-HPLC: C18 5u, 250×21 mm, eluent given in parentheses. ^1H-NMR spectra were recorded using Bruker Avance operated at 400 MHz. ^13C-NMR spectra were recorded using Bruker Avance operated at 100 MHz. Chemical shifts were reported in ppm on the δ scale relative to a residual solvent (CDCl3: δ=7.26 for ^1H-NMR and 77.16 for ^13C-NMR, DMSO-d6: δ=2.50 for ^1H-NMR and 39.52 for ^13C-NMR). Mass spectra were measured on Waters Xevo TQD. Fluorescence and chemiluminescence were recorded on Molecular Devices Spectramax i3x. Fluorescence quantum yield was determined using Hamamatsu Quantaurus-QY. All reagents, including salts and solvents, were purchased from Sigma-Aldrich. Light irradiation for photochemical reactions: LED PAR38 lamp (19 W, 3000K).
Next, we incubated our luminophores under physiological conditions and evaluated their properties. […] As expected, the chemiluminescence emission spectra correlate with the fluorescence spectra of their corresponding decomposition benzoate esters products. […] This difference is attributed to the reduced pKa of Luminophore 2, which accelerate the generation of enriched phenolate population that spontaneously undergoes the chemiexcitation process. The chemiluminescence efficiency of Luminophores 1 and 2 was calculated to be 0.82% and 1.12% respectively. These outstanding results encouraged us to investigate the imaging features of our NIR luminophores to serve as a reporter both in-vitro and in-vivo bioassays.

[2] = molecular target: T1, β-galactosidase in HEK293 cells transfected with the LacZ gene (Escherichia coli, UniProt P00722); assay: Chemiluminescence imaging of HEK293-LacZ versus HEK293-wt cells; type: cell-based
T1 construct: expressed in transfected cells; host or cells: HEK293 (HEK293-LacZ)
T1 sequence (P00722 whole entry): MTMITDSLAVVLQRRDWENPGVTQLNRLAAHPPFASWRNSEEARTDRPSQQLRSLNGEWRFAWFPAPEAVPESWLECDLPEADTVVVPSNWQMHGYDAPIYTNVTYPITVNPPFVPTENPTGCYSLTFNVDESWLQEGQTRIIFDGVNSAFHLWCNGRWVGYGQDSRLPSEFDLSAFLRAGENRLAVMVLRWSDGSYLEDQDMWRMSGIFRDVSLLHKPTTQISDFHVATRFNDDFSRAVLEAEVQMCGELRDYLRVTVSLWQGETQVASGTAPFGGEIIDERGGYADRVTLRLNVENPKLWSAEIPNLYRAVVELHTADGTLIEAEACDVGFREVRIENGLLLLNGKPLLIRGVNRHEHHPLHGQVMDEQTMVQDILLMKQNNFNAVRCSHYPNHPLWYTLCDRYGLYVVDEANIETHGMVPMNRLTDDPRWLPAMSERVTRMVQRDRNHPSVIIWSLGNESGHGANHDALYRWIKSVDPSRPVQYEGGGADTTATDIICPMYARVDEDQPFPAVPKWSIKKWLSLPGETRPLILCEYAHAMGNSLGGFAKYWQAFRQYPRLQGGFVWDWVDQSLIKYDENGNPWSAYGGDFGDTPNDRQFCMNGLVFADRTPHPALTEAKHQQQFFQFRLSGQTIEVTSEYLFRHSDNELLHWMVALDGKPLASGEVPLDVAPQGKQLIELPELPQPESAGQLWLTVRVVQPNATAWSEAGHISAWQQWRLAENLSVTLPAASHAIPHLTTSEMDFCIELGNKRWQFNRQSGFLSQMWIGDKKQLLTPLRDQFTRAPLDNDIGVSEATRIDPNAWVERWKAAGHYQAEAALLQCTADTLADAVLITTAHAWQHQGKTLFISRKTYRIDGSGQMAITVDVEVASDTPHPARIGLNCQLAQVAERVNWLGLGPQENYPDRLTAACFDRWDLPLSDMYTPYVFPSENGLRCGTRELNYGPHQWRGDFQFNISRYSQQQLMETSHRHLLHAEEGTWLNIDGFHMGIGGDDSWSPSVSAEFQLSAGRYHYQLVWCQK
Procedure: FIGS. 1A-1C show the chemiluminescence kinetic profiles of probes 1a [10 μM] in PBS, pH 7.4, in the presence and absence of 1.5 units/mL β-galactosidase at 37° C. (1A); chemiluminescence imaging of Probe 1a [5 μM] in HEK293 cells (1B); and quantification of signal intensities evolving from HEK293 cells (1C).
Images were obtained following 20 minutes incubation with cell culture medium containing Probe 3a (5 μM), and were recorded on BioSpace Lab PhotonIMAGER™.
(§1) The spectral performance of Probe 1a was evaluated by measuring the chemiluminescent signal over time while its incubation took place under physiological conditions in the presence and absence of β-galactosidase (FIG. 1A). […] The emission spectra of 1a overlaps with its parent Luminophore 1 as expected. Next, we investigated the feasibility of Probe 1a to image the over expression of endogenous β-galactosidase in HEK293 cells transfected with the LacZ gene. We incubated Probe 1a with HEK293-LacZ and HEK293-wt cells. […] The chemiluminescence signal was quantified as depicted in FIG. 1C.
In order to investigate the feasibility of Probe 3a to monitor the enzymatic activity of β-galactosidase in vitro, the probe [1 μM] was incubated for 30 minutes with transfected HEK293-LacZ cell that overexpress the enzyme β-galactosidase, and under the same conditions with HEK293-wt cell as a control. The chemiluminescent signal was collected for 4 hours from the samples and quantified as depicts in FIG. 3.

β-galactosidase = assay: Chemiluminescence kinetic profile of probes in presence and absence of β-galactosidase; type: biochemical; settings: 37° C.
Procedure: FIGS. […] (1A); chemiluminescence imaging of Probe 1a [5 μM] in HEK293 cells (1B); and quantification of signal intensities evolving from HEK293 cells (1C).
as §1
The study in which the feasibility of Probe 1a to image the over expression of endogenous β-galactosidase in HEK293 cells transfected with the LacZ gene was repeated using Probe 3a, corresponding to Luminophore 3 wherein the phenol is masked with a β-galactosidase substrate as the responsive protecting group, and a short polyethylene-glycol ester is introduced instead of the […] acid residue, considering that cell permeability is reduced by negatively charged species.

endogenous H2O2 = assay: In-vivo imaging of endogenous H2O2 in peritoneal cavity of mice, LPS-induced peritonitis
Procedure: (§2) FIGS. 4A-4C show the chemiluminescent kinetic profile of Probe 2a [10 μM] in serum, in the presence and absence of H2O2[50 μM] (4A); in-vivo imaging of endogenous H2O2 in the peritoneal cavity of mice during an LPS-induced inflammatory response, using probes 2a and 2b. Images of mice were recorded on BioSpace Lab PhotonIMAGER™. Group A: 1 mL of 0.1 mg/mL LPS was injected into the peritoneal cavity of mice, followed 4 h later by an IP injection of Probe 2a [100 μM, 100 μL in PBS]. Group B: 1 mL of 0.1 mg/mL LPS was injected into the peritoneal cavity of mice, followed 4 h later by an IP injection of Probe 2b [100 μM, 100 μL in PBS]. Group C: 1 mL PBS 7.4 was injected into the peritoneal cavity of mice, followed 4 h later by an IP injection of Probe 2a [100 μM, 100 μL in PBS 7.4] (4B); and quantification of signal intensities evolved from each group of mice (4C).
Since we established that our luminophores can serve as chemiluminescence reporter for in-vitro imaging we wanted to test their ability to image a whole animal. We tested the ability of Probe 2a to detect endogenous H2O2 by using a mouse model peritonitis that was induced by intraperitoneal injection of lipopolysaccharide (LPS). […] Three groups of mice were applied: (A) mice that were treated with LPS followed by the injection of probe 2a; (B) mice that were treated with LPS followed by the injection of Probe 2b; and (C) mice that were treated with vehicle control (PBS 7.4) followed by the injection of Probe 2a.
After 1 minute, a ratio of 19 was observed comparing the signal intensities of LPS treated and non-LPS treated mice which were injected with Probe 2a (groups A and C).

[3] = Chemiluminescence kinetic profile of probe in presence and absence of H2O2; settings: probe 10 μM in serum, presence vs absence of H2O2 50 μM
Procedure: as §2
At first, we wanted evaluated the ability of Probe 2a to detect H2O2, therefore we incubated Probe 2a in the presence and absence of H2O2 and monitored the emitted light.

[4] = probe 1 μM, 30 minutes incubation

pKa [1] | ΦCL (chemiluminescence efficiency) [1] | λ maxCL (maximal chemiluminescence emission) [1] | Structure (SMILES) | also measured
~8.8 | 0.82% | 660 nm | COC1(c2cc(O)ccc2/C=C/C2=CC(=C(C#N)C#N)c3ccccc3O2)OOC12C1CC3CC(C1)CC2C3 (stereo not drawn) [Luminophore 1] | 
7.35 | 1.12% | 690 nm | COC1(c2cc(O)c(/C=C/C(=O)O)cc2/C=C/C2=CC(=C(C#N)C#N)c3ccccc3O2)OOC12C1CC3CC(C1)CC2C3 (stereo not drawn) [Luminophore 2] | 
7.71 | 0.70% | 670 nm | COC1(c2cc(O)c(/C=C/C(=O)O)cc2/C=C/C2=C(C#N)C(=C(C#N)C#N)OC2(C)C)OOC12C1CC3CC(C1)CC2C3 (stereo not drawn) [Luminophore 3] | 
6.72 | 0.95% | 730 nm | COC1(c2ccc(/C=C/C3=CC(=C(C#N)C#N)c4ccccc4O3)c(O)c2Cl)OOC12C1CC3CC(C1)CC2C3 (stereo not drawn) [Luminophore 4] | 
 |  |  | COC1(c2cc(O[C@@H]3OC(CO)[C@H](O)C(O)C3O)ccc2/C=C/C2=CC(=C(C#N)C#N)c3ccccc3O2)OOC12C1CC3CC(C1)CC2C3 (stereo partly drawn) [Probe 1a] | ratio between signal intensities of transfected cells to wild type cells ([2]; HEK293-LacZ vs HEK293-wt, probe 5 μM): 14; chemiluminescent signal in HEK293-LacZ cells ([2]; probe 5 μM): intense chemiluminescent signal; chemiluminescent signal in HEK293-wt cells ([2]; probe 5 μM): negligible chemiluminescent signal; signal-to-noise ratio (β-galactosidase; probe 10 μM in PBS pH 7.4, presence vs absence of 1.5 units/mL β-galactosidase): 17
 |  |  | COC1(c2cc(B3OC(C)(C)C(C)(C)O3)c(/C=C/C(=O)O)cc2/C=C/C2=CC(=C(C#N)C#N)c3ccccc3O2)OOC12C1CC3CC(C1)CC2C3 (stereo not drawn) [Probe 2a] | chemiluminescence signal right after probe injection (endogenous H2O2; group A (LPS + Probe 2a) compared with groups B and C): efficient chemiluminescence signal; signal ratio, LPS treated mice injected with Probe 2a vs Probe 2b (endogenous H2O2; groups A and B, IP probe 100 μM, 100 μL in PBS, 4 h after LPS): 45; ratio of signal intensities, LPS treated vs non-LPS treated mice (endogenous H2O2; groups A and C, IP probe 100 μM, 100 μL in PBS, 4 h after LPS or PBS, after 1 minute): 19; signal-to-noise ratio [3]: 57
 |  |  | COCCOCCOCCOCCOC(=O)/C=C/c1cc(/C=C/C2=C(C#N)C(=C(C#N)C#N)OC2(C)C)c(C2(OC)OOC23C2CC4CC(C2)CC3C4)cc1OCc1ccc(O[C@@H]2OC(CO)[C@H](O)[C@H](O)C2O)cc1 (stereo partly drawn) [Probe 3a] | signal ratio between transfected cells to wild type ([2]; HEK293-LacZ vs HEK293-wt, probe 1 μM incubated 30 minutes, signal collected 4 hours): 17; chemiluminescent signal in HEK293-LacZ cells [2, 4]: intense chemiluminescent signal; chemiluminescent signal in HEK293-wt cells [2, 4]: unneglectable chemiluminescent signal; signal-to-noise ratio (β-galactosidase; probe 1 μM in PBS (100 mM) 7.4 with 10% serum, presence vs absence of β-galactosidase 1.5 EU/mL): 43
